Earlier results in paper PMC4461526 (Bioorganic & medicinal chemistry, 2015).

Key:
Human ABCC2 [1] = biological target: T1, Human ABCC2 (Homo sapiens, UniProt Q92887); conditions: ref 30 (Kidron et al.); for IC50: read-out: IC50 (inhibitors of EG)
Human ABCC2 [2] = biological target: T1, Human ABCC2; conditions: ref 30 (Kidron et al.)

T1 sequence (Q92887 whole entry): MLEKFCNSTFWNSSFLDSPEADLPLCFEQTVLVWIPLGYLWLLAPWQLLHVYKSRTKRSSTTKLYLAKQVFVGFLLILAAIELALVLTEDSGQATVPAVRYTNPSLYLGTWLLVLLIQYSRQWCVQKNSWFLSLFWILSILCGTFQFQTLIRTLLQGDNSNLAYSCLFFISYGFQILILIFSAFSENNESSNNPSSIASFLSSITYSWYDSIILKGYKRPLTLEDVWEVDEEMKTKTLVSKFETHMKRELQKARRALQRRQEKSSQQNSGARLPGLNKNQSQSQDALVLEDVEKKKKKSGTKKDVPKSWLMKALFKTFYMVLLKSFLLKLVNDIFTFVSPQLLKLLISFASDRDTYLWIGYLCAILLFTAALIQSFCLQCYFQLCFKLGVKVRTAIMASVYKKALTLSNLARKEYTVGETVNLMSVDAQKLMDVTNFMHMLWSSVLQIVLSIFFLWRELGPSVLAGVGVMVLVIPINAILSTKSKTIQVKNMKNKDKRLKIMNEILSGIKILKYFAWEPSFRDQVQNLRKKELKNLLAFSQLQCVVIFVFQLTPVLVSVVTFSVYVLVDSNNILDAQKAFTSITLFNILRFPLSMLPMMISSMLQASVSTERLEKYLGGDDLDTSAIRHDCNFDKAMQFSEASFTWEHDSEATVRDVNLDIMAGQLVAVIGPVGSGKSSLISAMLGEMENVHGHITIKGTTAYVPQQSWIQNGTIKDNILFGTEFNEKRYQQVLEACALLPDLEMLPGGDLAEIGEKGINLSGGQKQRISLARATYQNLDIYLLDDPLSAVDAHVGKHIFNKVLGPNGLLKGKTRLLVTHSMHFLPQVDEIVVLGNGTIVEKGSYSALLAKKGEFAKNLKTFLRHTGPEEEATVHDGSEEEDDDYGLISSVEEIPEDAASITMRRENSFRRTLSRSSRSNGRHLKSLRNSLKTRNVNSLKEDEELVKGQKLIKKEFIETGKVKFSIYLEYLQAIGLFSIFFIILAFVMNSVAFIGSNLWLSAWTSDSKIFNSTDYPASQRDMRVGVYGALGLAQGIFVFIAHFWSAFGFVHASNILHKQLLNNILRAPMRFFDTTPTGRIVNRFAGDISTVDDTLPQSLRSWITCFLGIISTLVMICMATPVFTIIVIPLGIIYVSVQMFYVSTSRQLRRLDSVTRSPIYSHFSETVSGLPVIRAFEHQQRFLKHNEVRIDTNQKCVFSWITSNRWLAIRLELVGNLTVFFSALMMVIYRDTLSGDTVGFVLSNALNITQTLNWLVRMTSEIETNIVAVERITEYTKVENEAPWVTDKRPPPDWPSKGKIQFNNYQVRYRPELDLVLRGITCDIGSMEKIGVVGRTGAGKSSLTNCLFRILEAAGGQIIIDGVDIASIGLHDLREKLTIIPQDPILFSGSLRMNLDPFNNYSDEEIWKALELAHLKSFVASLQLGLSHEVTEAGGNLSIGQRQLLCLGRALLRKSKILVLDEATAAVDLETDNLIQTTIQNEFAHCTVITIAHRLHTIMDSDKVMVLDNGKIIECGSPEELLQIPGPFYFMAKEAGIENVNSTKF

| SMILES | IC50 (Human ABCC2 [1]) | effect on CDCF transport (Human ABCC2 [2]) | effect on EG transport (Human ABCC2 [1]) |
| --- | --- | --- | --- |
| O=C(O)Cc1ccccc1Nc1c(Cl)cccc1Cl [diclofenac] |  |  | stimulators |
| CSc1ccc2c(c1)N(CCC1CCCCN1C)c1ccccc1S2 (stereo not shown) [thioridazine] | 40 to 60 µM | stimulating |  |

Results, then the compound that gave them:

| IC50 (Human ABCC2 [1]) | effect on CDCF transport (Human ABCC2 [2]) | effect on EG transport (Human ABCC2 [1]) | SMILES |
| --- | --- | --- | --- |
| 40 to 60 µM | stimulating |  | CCCC1O[C@@H]2C[C@H]3[C@@H]4CCC5=CC(=O)C=C[C@]5(C)[C@H]4[C@@H](O)C[C@]3(C)[C@]2(C(=O)CO)O1 (stereo partly shown) [budes-onide] |
|  |  | stimulators | C[C@]12CC[C@@H]3c4ccc(OS(=O)(=O)O)cc4CC[C@H]3[C@@H]1CCC2=O [estrone-3-sulfate] |
|  |  | stimulators | COc1ccc2c(c1)c(CC(=O)O)c(C)n2C(=O)c1ccc(Cl)cc1 [indomethacin] |
